Assays:
late watergrass = test: Test Example 2: herbicidal activity, application during weed generation under submerged conditions (Table 17, symbol A); assay type: in vivo, late watergrass (Echinochloa oryzicola); settings: application during weed generation, submerged conditions
Method in brief: (§1)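 Mixed weed seedlings in alluvial soil under a 4 cm water layer, greenhouse-grown at 25–30° C. Compound given as a diluted emulsion into the floodwater at the 1–2 leaf stage; response graded after three weeks.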

rice flat sedge = test: Test Example 3: herbicidal effect by foliage application, Wagner pot (Table 18, symbol E); assay type: in vivo, rice flat sedge (Cyperus iria)
Method in brief: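 Plants were sown in alluvial soil held under 0.1–0.5 cm standing water and grown 14 days in a greenhouse at 25–30 °C. An emulsifiable formulation, water-diluted to the set dose, was then sprayed onto the foliage, and effects were scored three weeks later using previously defined criteria.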

Italian ryegrass [1] = test: Test Example 5: herbicidal effect by foliage application, plastic box (Table 20, symbol K); assay type: in vivo, Italian ryegrass (Lolium multiflorum); settings: foliage application, three weeks after application
Method in brief: (§2)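 Plants sown in sterilized diluvial soil and grown 14 days in a greenhouse at 25° C to 30° C, then sprayed on the foliage with the compound's emulsion diluted in water to a predetermined herbicide amount. Injury to weeds and crops scored three weeks after application on a visual rating scale.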

Japanese bulrush [2] = test: Test Example 1: herbicidal activity, application before weed generation under submerged conditions (Table 16, symbol B); assay type: in vivo, Japanese bulrush (Schoenoplectus juncoides)
Method in brief: (§3)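 Submerged Wagner pots (alluvial soil, 4 cm water) sown with weed seeds and planted with 2.5-leaf rice seedlings; emulsifiable concentrate diluted in water applied to water surface on sowing day. Held in greenhouse at 25-30 °C; injury scored 0-5 by herbicidal rate after three weeks.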

Japanese bulrush [3] = test: Test Example 2: herbicidal activity, application during weed generation under submerged conditions (Table 17, symbol B); assay type: in vivo, Japanese bulrush (Schoenoplectus juncoides); settings: application during weed generation, submerged conditions
Method in brief: as §1

windgrass = test: Test Example 5: herbicidal effect by foliage application, plastic box (Table 20, symbol L); assay type: in vivo, windgrass (Apera spica-venti); settings: foliage application, three weeks after application
Method in brief: as §2

Italian ryegrass [4] = test: Test Example 4: herbicidal effect by soil treatment (Table 19, symbol K); assay type: in vivo, Italian ryegrass (Lolium multiflorum)
Method in brief: (§4)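 Seeds were sown in sterilized diluvial soil and covered with about 1.5 cm of soil. An emulsion formulation diluted with water to a predetermined herbicide amount was sprayed evenly onto the soil surface. Plants grew in a greenhouse at 25° C. to 30° C., and the effect was scored three weeks after application using criteria from an earlier test.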

lambsquarters [5] = test: Test Example 4: herbicidal effect by soil treatment (Table 19, symbol O); assay type: in vivo, lambsquarters (Chenopodium album)
Method in brief: as §4

velvetleaf [6] = test: Test Example 4: herbicidal effect by soil treatment (Table 19, symbol M); assay type: in vivo, velvetleaf (Abutilon theophrasti)
Method in brief: as §4

barnyard grass = test: Test Example 5: herbicidal effect by foliage application, plastic box (Table 20, symbol H); assay type: in vivo, barnyard grass (Echinochloa crus-galli); settings: foliage application, three weeks after application
Method in brief: as §2

chickweed = test: Test Example 5: herbicidal effect by foliage application, plastic box (Table 20, symbol P); assay type: in vivo, common chickweed (Stellaria media); settings: foliage application, three weeks after application
Method in brief: as §2

persian speedwell = test: Test Example 4: herbicidal effect by soil treatment (Table 19, symbol R); assay type: in vivo, Persian speedwell (Veronica persica)
Method in brief: as §4

wild oat [7] = test: Test Example 4: herbicidal effect by soil treatment (Table 19, symbol I); assay type: in vivo, wild oat (Avena fatua)
Method in brief: as §4

lambsquarters [8] = test: Test Example 5: herbicidal effect by foliage application, plastic box (Table 20, symbol O); assay type: in vivo, lambsquarters (Chenopodium album); settings: foliage application, three weeks after application
Method in brief: as §2

velvetleaf [9] = test: Test Example 5: herbicidal effect by foliage application, plastic box (Table 20, symbol M); assay type: in vivo, velvetleaf (Abutilon theophrasti); settings: foliage application, three weeks after application
Method in brief: as §2

wild oat [10] = test: Test Example 5: herbicidal effect by foliage application, plastic box (Table 20, symbol I); assay type: in vivo, wild oat (Avena fatua); settings: foliage application, three weeks after application
Method in brief: as §2

oval-leafed pondweed = test: Test Example 1: herbicidal activity, application before weed generation under submerged conditions (Table 16, symbol C); assay type: in vivo, oval-leafed pondweed (Monochoria vaginalis)
Method in brief: as §3

[11] = amount of applied herbicide 320 g/ha
[12] = amount of applied herbicide 310 g/ha

Structure (SMILES)	herbicidal effect rating, A: late watergrass (late watergrass; AAH 320 g/ha)	herbicidal effect on rice flat sedge (E) (rice flat sedge; 320 g/ha)	K: Italian ryegrass, herbicidal effect grade (Italian ryegrass [1]; 320 g/ha)	Herbicidal effect, B: Japanese bulrush (Japanese bulrush [2]; [11])	herbicidal effect rating, B: Japanese bulrush (Japanese bulrush [3]; AAH 320 g/ha)	L: windgrass, herbicidal effect grade (windgrass; 320 g/ha)	K: Italian ryegrass, herbicidal effect grade (Italian ryegrass [4]; [11])	O: lambsquarters, herbicidal effect grade (lambsquarters [5]; [11])	M: velvetleaf, herbicidal effect grade (velvetleaf [6]; [11])	H: barnyard grass, herbicidal effect grade (barnyard grass; 320 g/ha)	P: chickweed, herbicidal effect grade (chickweed; 320 g/ha)	R: persian speedwell, herbicidal effect grade (persian speedwell; [11])	I: wild oat, herbicidal effect grade (wild oat [7]; [11])	O: lambsquarters, herbicidal effect grade (lambsquarters [8]; 320 g/ha)	M: velvetleaf, herbicidal effect grade (velvetleaf [9]; 320 g/ha)	I: wild oat, herbicidal effect grade (wild oat [10]; 320 g/ha)	Herbicidal effect, C: oval-leafed pondweed (oval-leafed pondweed; [11])	other results
CCCC(=O)Oc1c(C)nn(C)c(=O)c1-c1c(-c2ccc(F)cc2OC)sc2cc(OC)ccc12 [3-077]	2 (Herbicidal rate of 20% or more and less than 40%)	5 (Herbicidal rate of 90% or more (almost completely withered))	3 (Herbicidal rate of 40% or more and less than 70%)	5 (Herbicidal rate of 90% or more (almost completely withered))	4 (Herbicidal rate of 70% or more and less than 90%)	4 (Herbicidal rate of 70% or more and less than 90%)	3 (Herbicidal rate of 40% or more and less than 70%)	4 (Herbicidal rate of 70% or more and less than 90%)	0 (Herbicidal rate of 5% or less (almost no effect))	0 (Herbicidal rate of 5% or less (almost no effect))	5 (Herbicidal rate of 90% or more (almost completely withered))	4 (Herbicidal rate of 70% or more and less than 90%)	2 (Herbicidal rate of 20% or more and less than 40%)	4 (Herbicidal rate of 70% or more and less than 90%)	4 (Herbicidal rate of 70% or more and less than 90%)	4 (Herbicidal rate of 70% or more and less than 90%)	5 (Herbicidal rate of 90% or more (almost completely withered))	–
CCOc1ccccc1-c1sc2cc(OC)ccc2c1-c1c(O)c(C)nn(CC)c1=O [3-085]	0 (Herbicidal rate of 5% or less (almost no effect))	4 (Herbicidal rate of 70% or more and less than 90%)	0 (Herbicidal rate of 5% or less (almost no effect))	5 (Herbicidal rate of 90% or more (almost completely withered))	3 (Herbicidal rate of 40% or more and less than 70%)	4 (Herbicidal rate of 70% or more and less than 90%)	0 (Herbicidal rate of 5% or less (almost no effect))	3 (Herbicidal rate of 40% or more and less than 70%)	0 (Herbicidal rate of 5% or less (almost no effect))	4 (Herbicidal rate of 70% or more and less than 90%)	5 (Herbicidal rate of 90% or more (almost completely withered))	5 (Herbicidal rate of 90% or more (almost completely withered))	0 (Herbicidal rate of 5% or less (almost no effect))	3 (Herbicidal rate of 40% or more and less than 70%)	5 (Herbicidal rate of 90% or more (almost completely withered))	4 (Herbicidal rate of 70% or more and less than 90%)	4 (Herbicidal rate of 70% or more and less than 90%)	–
CCCC(=O)Oc1c(C)nn(C)c(=O)c1-c1c(-c2ccccc2OC)sc2cc(OCC)ccc12 [3-090]	–	–	–	–	–	–	–	–	–	–	–	–	–	–	–	–	–	herbicidal effect rating, A: late watergrass (late watergrass; AAH 310 g/ha): 4 (Herbicidal rate of 70% or more and less than 90%); herbicidal effect on rice flat sedge (E) (rice flat sedge; 310 g/ha): 5 (Herbicidal rate of 90% or more (almost completely withered)); K: Italian ryegrass, herbicidal effect grade (Italian ryegrass [1]; 310 g/ha): 5 (Herbicidal rate of 90% or more (almost completely withered)); Herbicidal effect, B: Japanese bulrush (Japanese bulrush [2]; [12]): 5 (Herbicidal rate of 90% or more (almost completely withered)); herbicidal effect rating, B: Japanese bulrush (Japanese bulrush [3]; AAH 310 g/ha): 4 (Herbicidal rate of 70% or more and less than 90%); L: windgrass, herbicidal effect grade (windgrass; 310 g/ha): 5 (Herbicidal rate of 90% or more (almost completely withered)); K: Italian ryegrass, herbicidal effect grade (Italian ryegrass [4]; [12]): 4 (Herbicidal rate of 70% or more and less than 90%); O: lambsquarters, herbicidal effect grade (lambsquarters [5]; [12]): 4 (Herbicidal rate of 70% or more and less than 90%); M: velvetleaf, herbicidal effect grade (velvetleaf [6]; [12]): 3 (Herbicidal rate of 40% or more and less than 70%); H: barnyard grass, herbicidal effect grade (barnyard grass; 310 g/ha): 5 (Herbicidal rate of 90% or more (almost completely withered)); P: chickweed, herbicidal effect grade (chickweed; 310 g/ha): 5 (Herbicidal rate of 90% or more (almost completely withered)); R: persian speedwell, herbicidal effect grade (persian speedwell; [12]): 5 (Herbicidal rate of 90% or more (almost completely withered)); I: wild oat, herbicidal effect grade (wild oat [7]; [12]): 0 (Herbicidal rate of 5% or less (almost no effect)); O: lambsquarters, herbicidal effect grade (lambsquarters [8]; 310 g/ha): 5 (Herbicidal rate of 90% or more (almost completely withered)); M: velvetleaf, herbicidal effect grade (velvetleaf [9]; 310 g/ha): 5 (Herbicidal rate of 90% or more (almost completely withered)); I: wild oat, herbicidal effect grade (wild oat [10]; 310 g/ha): 4 (Herbicidal rate of 70% or more and less than 90%); Herbicidal effect, C: oval-leafed pondweed (oval-leafed pondweed; [12]): 4 (Herbicidal rate of 70% or more and less than 90%)
CCOc1ccc2c(-c3c(O)c(C)nn(C)c3=O)c(-c3ccc(OC)cc3)sc2c1 [3-091]	0 (Herbicidal rate of 5% or less (almost no effect))	4 (Herbicidal rate of 70% or more and less than 90%)	0 (Herbicidal rate of 5% or less (almost no effect))	4 (Herbicidal rate of 70% or more and less than 90%)	3 (Herbicidal rate of 40% or more and less than 70%)	0 (Herbicidal rate of 5% or less (almost no effect))	0 (Herbicidal rate of 5% or less (almost no effect))	5 (Herbicidal rate of 90% or more (almost completely withered))	0 (Herbicidal rate of 5% or less (almost no effect))	3 (Herbicidal rate of 40% or more and less than 70%)	5 (Herbicidal rate of 90% or more (almost completely withered))	5 (Herbicidal rate of 90% or more (almost completely withered))	0 (Herbicidal rate of 5% or less (almost no effect))	5 (Herbicidal rate of 90% or more (almost completely withered))	4 (Herbicidal rate of 70% or more and less than 90%)	0 (Herbicidal rate of 5% or less (almost no effect))	4 (Herbicidal rate of 70% or more and less than 90%)	–
CCCC(=O)Oc1c(C)nn(C)c(=O)c1-c1c(-c2ccc(OC)cc2)sc2cc(OCC)ccc12 [3-092]	0 (Herbicidal rate of 5% or less (almost no effect))	4 (Herbicidal rate of 70% or more and less than 90%)	0 (Herbicidal rate of 5% or less (almost no effect))	3 (Herbicidal rate of 40% or more and less than 70%)	1 (Herbicidal rate of 5% or more and less than 20%)	0 (Herbicidal rate of 5% or less (almost no effect))	0 (Herbicidal rate of 5% or less (almost no effect))	4 (Herbicidal rate of 70% or more and less than 90%)	0 (Herbicidal rate of 5% or less (almost no effect))	0 (Herbicidal rate of 5% or less (almost no effect))	5 (Herbicidal rate of 90% or more (almost completely withered))	5 (Herbicidal rate of 90% or more (almost completely withered))	0 (Herbicidal rate of 5% or less (almost no effect))	4 (Herbicidal rate of 70% or more and less than 90%)	5 (Herbicidal rate of 90% or more (almost completely withered))	0 (Herbicidal rate of 5% or less (almost no effect))	3 (Herbicidal rate of 40% or more and less than 70%)	–
